We go through eight compounds from article PMC9533862 (Antiviral Research, 2010).

In data set [1] the test system is vaccinia virus (strain Copenhagen). Description: microbe, parasite or virus in culture. The data set is classed as cell-based.
Data set [2] is described as follows: in vitro. The following applies: human, CC50, HeLa cell monolayers; 24 h incubation; WST-1. (In general: Tetrazolium assays rely on reduction of a dye to a coloured formazan, in cell work by metabolically active cells.)
The subject of data set [3] is myxoma virus. The format is cell-based. The settings on record: HeLa cells, 2 μM, MOI 0.1.
Data set [4] deals with Plasmodium vinckei petteri. The following applies: mice; ref Adovelande and Schrevel, 1996; cited from earlier work.
Data set [5] deals with vaccinia virus protein expression (D12, G8, H3). The format is cell-based. The following applies: 2 μM.
Data set [6] relates to vaccinia virus Western Reserve (WR) strain. As to the kind of experiment: microbe, parasite or virus in culture. The format is cell-based.
For data set [7], the system named is vaccinia virus (strain Copenhagen). The data set is classed as cell-based. The following applies: 0.2 μM.
For data set [8], the system named is vaccinia virus DNA replication. The data set is classed as cell-based.
Data set [9] deals with vaccinia virus gene transcription (D12, A1, A17). The data set is classed as cell-based. The settings on record: 2 μM.
The test system of data set [10] is vaccinia virus (strain Copenhagen). The format is cell-based.
The test system is the same in data set [11]. The data set is classed as cell-based. The settings on record: 0.2 μM. The source holds these as a separate data set.
Data set [12] has as its system vaccinia virus. The settings on record: previously reported against vaccinia; ref Yang et al., 2005; cited from earlier work.
The test system of data set [13] is HeLa cells. The settings on record: HeLa cell monolayers; 24 h incubation; WST-1.

Several values for one entry are separate records, joined by “and”; a condition that tells them apart may be missing. Equal values may be shown once. Read-outs that look alike come from different tables or passages of the source. Some results are limits rather than exact numbers.

Take `C/C=C/[C@H]1O[C@@](O)([C@@H](C)[C@H](O)[C@H](C)[C@H]2OC(=O)/C(OC)=C/C(C)=C/[C@@H](C)[C@@H](O)[C@@H](CC)[C@@H](O)[C@H](C)C/C(C)=C/C=C/[C@@H]2OC)C[C@@H](O[C@H]2C[C@@H](O)[C@H](OC(N)=O)[C@@H](C)O2)[C@@H]1C` [Concanamycin A]: the Selectivity index in [1] amounted to 7941. In data set [1] (Orthopoxvirus vaccinia, HeLa), this compound displayed an IC50 of about 0.0017 µM. This compound showed a CC50 in [2] of 13.5 ± 5.7 µM.

In the case of `CO[C@@H]1C[C@@H](C[C@H]2CC[C@H](C)[C@H]([C@@H](C)C(=O)O)O2)O[C@]2(O[C@](C)([C@H]3CC[C@@](C)([C@@H]4O[C@@H]([C@H]5O[C@@](O)(CO)[C@H](C)C[C@@H]5C)C[C@@H]4C)O3)C[C@H]2C)[C@@H]1C` [Nigericin], the “reduction in virus titres” value in data set [3] came to 676 fold. Also, the Selectivity index in data set [1] is recorded as 1038 (Cop). The same compound yielded an IC50 in data set [1] (Orthopoxvirus vaccinia, HeLa) of about 0.0079 µM. In addition, the “dosages at which toxicity was observed” value in data set [4] is on record as “above 10 mg kg^−1”. In data set [5], the “D12 (early) protein expression” value was “partially inhibited”, the “G8 (intermediate) protein expression” value is listed as “very little G8 detected” and the “H3 (late) protein expression” value is listed as “unable to detect H3 protein”. The Selectivity index in data set [6] is listed as 421 (WR). This compound gave an IC50 in data set [6] (Vaccinia virus Western Reserve, HeLa) of about 0.0195 µM. Also, the “decrease in viral titres” value in data set [7] was about 10 fold. In addition, the “abundance of the A1 gene at 8 hpi (viral DNA replication)” value in data set [8] (2 μM) is “no significant increase in the abundance of the A1 gene”. In data set [9], the “reduction of A1 (intermediate) transcript expression” value is recorded as about 94%, the “reduction of A17 (late) transcript expression” value was about 98% and the “reduction of D12 (early) transcript expression” value is recorded as about 82%. In [10], the “reduction of virus replication, compound added 4 hpi” value is given as about 1600 fold and the “vaccinia replication after removal of compound at 1 hpi” value is given as “vaccinia replication approached the level of untreated controls”. Besides, the “decrease in viral titres” value in data set [10] (0.2 μM) was about 10 fold. Moreover, the “decrease in viral titres” value in [11] is about 10 fold.

For the compound `O=C(NN1C(=O)[C@@H]2[C@@H]3C=C[C@@H]([C@H]4C[C@@H]34)[C@@H]2C1=O)c1ccc(C(F)(F)F)cc1` [ST-246], the IC50 was about 0.0094 µM in data set [1] (Orthopoxvirus vaccinia, HeLa) and 0.01 µM in data set [12]. The same compound had a CC50 in [2] of over 1000 µM. Also, in [10], the “reduction in virus titres” value is “approximately 7.4 fold”.

Regarding `C/C=C/[C@H]1O[C@@](O)([C@@H](C)[C@H](O)[C@H](C)[C@H]2OC(=O)/C(OC)=C/C(C)=C/[C@@H](C)[C@@H](O)[C@@H](C)[C@@H](O)[C@H](C)C/C(C)=C/C=C/[C@@H]2OC)C[C@@H](O[C@H]2C[C@@H](O)[C@H](OC(N)=O)[C@@H](C)O2)[C@@H]1C` [Concanamycin B], the IC50 in data set [1] is ~0.011 µM and 0.011 µM. The cytotoxic concentration (CC50) in [13] is 21.4 ± 0.6 µM.

For the compound `C/C=C/[C@H]1O[C@@](O)([C@@H](C)[C@H](O)[C@H](C)[C@H]2OC(=O)/C(OC)=C/C(C)=C/[C@@H](C)[C@@H](O)[C@@H](CC)[C@@H](O)[C@H](C)C/C(C)=C/C=C/[C@@H]2OC)C[C@@H](O[C@H]2C[C@@H](O)[C@H](O)[C@@H](C)O2)[C@@H]1C` [Concanamycin C], the IC50 in data set [1] was ~0.0028 µM and 0.0028 µM. Besides, in data set [13], it took 15.6 ± 3.2 µM to reach half-maximal cytotoxicity (CC50).

Compound `CC[C@@]1([C@@H]2O[C@@H]([C@H]3O[C@@](O)(CO)[C@H](C)C[C@@H]3C)C[C@@H]2C)CC[C@H]([C@]2(C)CC[C@]3(C[C@H](O)[C@@H](C)[C@@H]([C@@H](C)[C@@H](OC)[C@H](C)C(=O)O)O3)O2)O1` [Monensin] showed a Selectivity index in [1] of 1065. The compound further had an IC50 in data set [1] (Orthopoxvirus vaccinia, HeLa) of about 0.0216 µM. Also, in data set [2], half-maximal cytotoxicity (CC50) was put at 23 ± 2.9 µM. For the same compound, in data set [10], the “reduction in virus titres” value is given as “approximately 20 fold”.

In data set [1] (Orthopoxvirus vaccinia, HeLa), `Nc1ccn(C[C@@H](CO)OCP(=O)(O)O)c(=O)n1` [Cidofovir] had an IC50 of about 110 µM. This compound also showed a CC50 in data set [2] of over 1000 µM. Besides, the “reduction in virus titres” value in data set [10] is recorded as “no effect on vaccinia replication”.

`Nc1ccn([C@@H]2O[C@H](CO)[C@@H](O)[C@@H]2O)c(=O)n1` [araC, cytosine arabinoside]: in [8] (50 μg/mL), the “abundance of the A1 gene at 8 hpi (viral DNA replication)” value is recorded as “no significant increase in the abundance of the A1 gene”.

For orientation: IC50 means the concentration at which inhibition is half-maximal. Broadly, the CC50 is the concentration at which the toxic effect on the cells reaches its halfway point. Read a low CC50 as harm at low concentration.
